Tests used:
PC12 cells = assay: PC12 cell serum withdrawal model, MTS cell survival assay; type: cell-based
Text: Serum withdrawal is a cytotoxic environmental challenge that results in cell death in cultured cell lines as well as in primary cells of various tissue origins, including nerve cells. In particular, pheochromocytoma (PC) 12 cells have been widely employed as an in vitro neuronal cell model for a wide variety of neurodegenerative and cell death related disorders (Muriel, et al, Mitochondrial free calcium levels (Rhod-2 fluorescence) and ultrastructural alterations in neuronally differentiated PC12 cells during ceramide-dependent cell death, J. Comp. Neurol., 2000, 426(2), 297-315; Dermitzaki, et al, Opioids transiently prevent activation of apoptotic mechanisms following short periods of serum withdrawal, J. Neurochem., 2000, 74(3), 960-969; Carlile, et al, Reduced apoptosis after nerve growth factor and serum withdrawal: conversion of tetrameric glyceraldehyde-3-phosphate dehydrogenase to a dimer, Mol. Pharmacol., 2000, 57(1), 2-12). PC12 cells were cultured in sterile media (RPMI 1640) supplemented with 10% heat-inactivated horse serum and 5% fetal bovine serum (FBS). The culture medium also contained Penicillin-Streptomycin-Neomycin antibiotic (50 µg, 50 µg, 100 µg, respectively). Medium was exchanged every other day and the cells were passed in log phase near confluence.
The control cells were cultured in regular media without any treatment. An enantiomer of Formula 7 or Formula 8 (10 µM) was mixed well in the medium and then applied to the cells. For the 2 day assay, an enantiomer of Formula 7 or Formula 8 (10 µM) was only applied to the cells once at the time of serum withdrawal. For the 7 day assay, an enantiomer of Formula 7 or Formula 8 (10. mu.M) was applied to the cells at the time of serum withdrawal and every 48 hr thereafter when cells were changed with fresh new serum-free medium. In the serum withdrawal group, the cells were cultured in serum-free medium with no additional enantiomer of Formula 7 or Formula 8. Cell survival was determined by the 3-(4,5-dimethylthiazol-2-yl)-5-(3-[…])-2-(4-sulfophenyl)-2H-tetrazolium inner salt (MTS) assay at 2 or 7 days after serum withdrawal.
At the end of the experiment, cells were washed with fresh medium and incubated with MTS solution in a humidified 37° C. with 5% CO2 incubator for 1.5 hr. After the incubation period, the cells were immediately analyzed using a Softmax program (Molecular Devices). […] The assay is based on the cellular conversion of the tetrazolium salt, MTS, into a formazan that is soluble in tissue culture medium and measured directly at 490 nm in 96-well assay plates. The absorbance is directly proportional to the number of living cells in culture. The arbitrary absorbance reading in control cells is expressed as 100% survival rate.

[1] = tested on: transient cerebral ischemia middle cerebral artery occlusion (MCAO) rat model; assay: Transient cerebral ischemia middle cerebral artery occlusion (MCAO) rat model, infarct volume; type: in vivo; conditions: N 12; for Mean Infarct Volume ± S.E.M., Striatum: vehicle 79.4; for Mean Infarct Volume ± S.E.M., Cortex: vehicle 275.5; for Mean Infarct Volume ± S.E.M., Total Volume: vehicle 354.9
Method: The enantiomer of Formula 7 (test compound) was investigated in the transient cerebral ischemia middle cerebral artery occlusion (MCAO) rat model (as described in Nagasawa H. and Kogure K., Stroke, 1989, 20, 1037; and, Zea Longa E., Weinstein P. R., Carlson S, and Cummins R., Stroke, 1989, 20, 84) using male Wistar rats at 10 and 100 mg/kg (i.v.). MK 801 (Dizocilpine maleate; CAS Registry number 77086-22-7, a commercially available neuroprotectant compound) was used as a positive control (3 mg/kg, i.p.).
Rats (n=12) were randomly allocated to one of four experimental groups and were anesthetized. Blood flow from the internal carotid artery, anterior cerebral artery and posterior cerebral artery into the middle cerebral artery was blocked by this procedure. One hour after blockage, animals were treated over a 1 hour period with vehicle (administered i.v. over the one hour period), control (administered as a single i.p. dose at the start of the one hour period) and two doses of the enantiomer of Formula 7 (administered i.v. over the one hour period). Two hours after blockage, reperfusion was performed.
The animals were sacrificed and […] coronal sections of each brain were prepared. One in every forty sections (i.e. every […]) from the front to the occipital cortex was used to quantify the extent of the cerebral lesion. Slides were prepared using sections stained (according to the Nissl procedure) with cresyl violet and were examined under a light microscope.
Regional ischemic surface areas in the coronal sections of individual rats were determined according to the presence of cells with morphological changes. The areas of neuronal injury or infarction were measured and then added. The cortex and striatum volume were calculated for each animal (total ischemic surface area×0.8 mm (thickness)).
The mean volumes (.+−.S.E.M.) for each animal randomly assigned to the four experimental groups were compared using one-way ANOVA (one way ANOVA is a statistical method which compares 3 or more unmatched groups) followed by Dunnett's t-test (both methods incorporated in Statview 512+software, BarinPower, Calabasas, Calif., USA).

[2] = Formula 7 10 mg/kg i.v. over 1 hour
[3] = Formula 7 100 mg/kg i.v. over 1 hour

NC(=O)OC[C@@H](O)c1ccccc1Cl [Formula 7]
2 Day Survival Rate (PC12 cells; 10 µM applied once at serum withdrawal, MTS assay 2 days after serum withdrawal, control 100, serum-free 49.6): 69.4 ± 1.7^1%
7 Day Survival Rate (PC12 cells; 10 µM at serum withdrawal and every 48 hr, MTS assay 7 days after serum withdrawal, control 100, serum-free 23.8): 79.9 ± 4.0^2%
Mean Infarct Volume ± S.E.M., Striatum [1, 2]: 75.9 ± 2.6 mm^3
Mean Infarct Volume ± S.E.M., Cortex [1, 2]: 201.0 ± 23.9 mm^3
Mean Infarct Volume ± S.E.M., Total Volume [1, 2]: 276.9 ± 25.4 mm^3
Mean Infarct Volume ± S.E.M., Striatum [1, 3]: 63.0 ± 5.9^2 mm^3
Mean Infarct Volume ± S.E.M., Cortex [1, 3]: 98.8 ± 29.5^1 mm^3
Mean Infarct Volume ± S.E.M., Total Volume [1, 3]: 161.9 ± 34.3^1 mm^3

Reference: patent publication US20090137652A1, “METHODS FOR NEUROPROTECTION” (priority 2005, published 2009)
